Experimental data: PubChem BioAssay AID2060510 (Molecular Pharmacology Branch, DTP, NCI, 2025)

Tested on: 439559-082-T-J2-PDC spheroids viability
Test: Anticancer human tumor 439559-082-T-J2-PDC patient-derived colon adenocarcinoma cell line growth inhibition [GQUAD]
Conditions: for IC50: curve of first compound; for viability, T/C: stronger effect = lower value
Description: DNA G-quadruplex Stabilizer Agents in Combinations in Complex Spheroids
A high-throughput screen of multi-cell type tumor spheroids was designed to identify active combinations of DNA G-quadruplex stabilizer agents and targeted small molecules. Complex spheroids include a stromal component modeled by human endothelial cells (HUVEC) and fibroblasts modeled by human mesenchymal stem cells (MSCs). The concentration ranges selected for each drug and investigational agent were based upon clinically achievable concentrations if the clinical Cmax of the agent was known.
Compounds. The drugs and investigational agents: pidnarulex (CX-5461; NSC782164), APTO-253 (NSC789042), BRACO-19 (NSC847499), peposertib (NSC802822), ceralasertib (NSC780249), elimusertib (NSC800525), camonsertib (NSC841442), AZD-1390 (NSC803789), olaparib (NSC753686), talazoparib (NSC767125), ART-558 (NSC835418), sotorasib (NSC818433), MRTX-1133 (NSC836407), SN-38 (NSC673596), topotecan (NSC609699), etoposide (NSC141540), doxorubicin (NSC123127), gemcitabine (NSC613327), 5-fluorouracil (NSC19893), paclitaxel (NSC125973), vemurafenib (NSC761431), panobinostat (NSC761190), R-306465 (JNJ-16241199; NSC773264), adavosertib (NSC754352), TP-3654 (NSC805149), carboplatin (NSC241240), KSQ-4279 (NSC840948), and staurosporine (NSC755774) were obtained from the National Cancer Institute (NCI) Developmental Therapeutics Program Chemical Repository (34). The FDA-approved anticancer drug set is available from the NCI Developmental Therapeutics Program. […] The stock solutions were prepared in dimethyl sulfoxide (DMSO, Sigma-Aldrich, St. Louis, MO, cat. D2650) at 800-fold the tested concentration and stored at -70 degrees C prior to their use. All drugs and investigational agents were tested over a range starting from a high concentration at or near the clinical Cmax and decreasing in half-log increments. If the clinical Cmax for an agent had not been determined, the highest concentration tested was 10 microM.
2.3 Cell Culture. All cells were maintained in an incubator at 37 degrees C and 5% CO2 with 95% humidity. The PDC lines were cultured according to standard operating procedures established by the NCI PDMR. All PDCs were thawed and cultured in Matrigel-coated flasks prepared with a working solution of 1X Ham's F-12 nutrient mix, without supplementation (Invitrogen, cat. 11765054), 100 U/mL penicillin-streptomycin (Invitrogen, cat. 15140122), and 2.5% Matrigel (Corning Inc., cat. 354248) for the first three passages. The 857933-349-R-J2-PDC line was cultured in 6C/Colon 1B media, which includes advanced DMEM/F-12 (Thermo Fisher Scientific, cat. 12634028), 10 mM HEPES (Thermo Fisher Scientific, cat. 15630080), 1X GlutaMAX supplement (Thermo Fisher Scientific, cat. 35050061), 0.1 mg/mL primocin (InvivoGen, cat. ant-pm-2), 10% defined fetal bovine serum, heat inactivated (HyClone Laboratories Inc., cat. SH30070.03HI), 50% L-WRN conditioned media (ATCC, cat. CRL-3276), 1.25 mM N-Acetyl-L-cysteine (Sigma-Aldrich, cat. A9165), 10 mM nicotinamide (Sigma-Aldrich, cat. N0636), 1X B-27 supplement (Thermo Fisher Scientific, cat. 17504044), 1X N-2 supplement (Thermo Fisher Scientific, cat. 17502048), 10 microM Y-27632 dihydrochloride (Tocris Bioscience, cat. 1254), and 50 ng/mL human EGF recombinant protein (Thermo Fisher Scientific, cat. PHG0311). The 485176-168-R4-J1-PDC line was cultured in Panc media, which includes all 6C/Colon 1B media components plus 100 ng/mL human FGF-10 (Thermo Fisher Scientific, cat. 100-26), 500 nM SB-431542 (Selleckchem, cat. S1067), and gastrin (Tocris, cat. 3006).
[…]
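Also: spheroids exposed to the agents for 7 days before readout.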
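For viability, T/C in this document: percent of luminescence signal in DMSO vehicle wells taken as 100% viability.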

Compound: COc1cc(C2c3cc4c(cc3C(OC3OC5COC(C)OC5C(O)C3O)C3COC(=O)C23)OCO4)cc(OC)c1O (configuration not stated) + Cc1[nH]c2ccc(F)cc2c1-c1nc2c3cccnc3c3ncccc3c2[nH]1
- IC50 (second compound 0.0316 µM): > 10 µM
- IC50 (second compound 0.1 µM): > 10 µM
- IC50 (second compound 0.316 µM): > 10 µM
- IC50 (second compound 1 µM): > 10 µM
- IC50 (second compound 3.16 µM): > 10 µM
- IC50 (second compound 10 µM): > 10 µM
- viability, T/C (second compound 0.0316 µM, first compound 0.0316 µM): 98.1%
- viability, T/C (second compound 0.0316 µM, first compound 0.1 µM): 99.7%
- viability, T/C (second compound 0.0316 µM, first compound 0.316 µM): 97.9%
- viability, T/C (second compound 0.0316 µM, first compound 1 µM): 87.8%
- viability, T/C (second compound 0.0316 µM, first compound 3.16 µM): 86.5%
- viability, T/C (second compound 0.0316 µM, first compound 10 µM): 66.1%
- viability, T/C (second compound 0.1 µM, first compound 0.0316 µM): 102%
- viability, T/C (second compound 0.1 µM, first compound 0.1 µM): 98.2%
- viability, T/C (second compound 0.1 µM, first compound 0.316 µM): 97.5%
- viability, T/C (second compound 0.1 µM, first compound 1 µM): 87.1%
- viability, T/C (second compound 0.1 µM, first compound 3.16 µM): 96.9%
- viability, T/C (second compound 0.1 µM, first compound 10 µM): 64.9%
- viability, T/C (second compound 0.316 µM, first compound 0.0316 µM): 108%
- viability, T/C (second compound 0.316 µM, first compound 0.1 µM): 101%
- viability, T/C (second compound 0.316 µM, first compound 0.316 µM): 103%
- viability, T/C (second compound 0.316 µM, first compound 1 µM): 94.2%
- viability, T/C (second compound 0.316 µM, first compound 3.16 µM): 85.6%
- viability, T/C (second compound 0.316 µM, first compound 10 µM): 65.3%
- viability, T/C (second compound 1 µM, first compound 0.0316 µM): 98.2%
- viability, T/C (second compound 1 µM, first compound 0.1 µM): 87.8%
- viability, T/C (second compound 1 µM, first compound 0.316 µM): 89.4%
- viability, T/C (second compound 1 µM, first compound 1 µM): 83.8%
- viability, T/C (second compound 1 µM, first compound 3.16 µM): 86.7%
- viability, T/C (second compound 1 µM, first compound 10 µM): 58.9%
- viability, T/C (second compound 3.16 µM, first compound 0.0316 µM): 76.5%
- viability, T/C (second compound 3.16 µM, first compound 0.1 µM): 85.2%
- viability, T/C (second compound 3.16 µM, first compound 0.316 µM): 84.1%
- viability, T/C (second compound 3.16 µM, first compound 1 µM): 73.5%
- viability, T/C (second compound 3.16 µM, first compound 3.16 µM): 79.9%
- viability, T/C (second compound 3.16 µM, first compound 10 µM): 56.7%
- viability, T/C (second compound 10 µM, first compound 0.0316 µM): 88.5%
- viability, T/C (second compound 10 µM, first compound 0.1 µM): 85.3%
- viability, T/C (second compound 10 µM, first compound 0.316 µM): 83.8%
- viability, T/C (second compound 10 µM, first compound 1 µM): 90.6%
- viability, T/C (second compound 10 µM, first compound 3.16 µM): 78.5%
- viability, T/C (second compound 10 µM, first compound 10 µM): 57.2%
